{
  "source": "patent EP0024372A1",
  "about": "“Derivatives of clavulanic acid, their preparation and pharmaceutical compositions containing them” (BEECHAM GROUP PLC, priority 1979, dated 1981)",
  "assay_in_all_cases": "standard MIC microtitre synergy test with ampicillin",
  "assay_type_in_all_cases": "cell-based",
  "key": {"[1]": {"tested_on": "Staphylococcus aureus Russell", "details": "one cell spanning Inhibitor Concentration 20, 5 and 1 μg/ml", "text": "(§1) In a standard MIC microtitre synergy test with ampicillin the following results were obtained with the compound of Example 7."}, "[2]": {"tested_on": "E.coli JT39", "text": "as §1"}, "[3]": {"tested_on": "Klebsiella aerogenes E70", "text": "as §1"}, "[4]": {"tested_on": "Proteus mirabilis C889", "text": "as §1"}, "[5]": {"details": "Inhibitor Concentration 1 μg/ml"}, "[6]": {"details": "Inhibitor Concentration 5 μg/ml"}, "[7]": {"details": "Inhibitor Concentration 20 μg/ml"}},
  "data": [
    {"smiles": "O=C(O)[C@H]1/C(=C/Cc2ccccc2O)O[C@@H]2CC(=O)N21", "note": "[Example 7, Lithium 9-(2-hydroxyphenyl)deoxyclavulanate]", "values": [
      {"measurement": "MIC microtitre synergy test with ampicillin", "setting": "[1]", "value": "- Inhibition -"},
      {"measurement": "MIC microtitre synergy test with ampicillin", "setting": "[2]; [5]", "value": 125},
      {"measurement": "MIC microtitre synergy test with ampicillin", "setting": "[2]; [6]", "value": 16},
      {"measurement": "MIC microtitre synergy test with ampicillin", "setting": "[2]; [7]", "value": 2},
      {"measurement": "MIC microtitre synergy test with ampicillin", "setting": "[3]; [5]", "value": 12.5},
      {"measurement": "MIC microtitre synergy test with ampicillin", "setting": "[3]; [6]", "value": 6.25},
      {"measurement": "MIC microtitre synergy test with ampicillin", "setting": "[3]; [7]", "value": 3.1},
      {"measurement": "MIC microtitre synergy test with ampicillin", "setting": "[4]; [5]", "value": 16},
      {"measurement": "MIC microtitre synergy test with ampicillin", "setting": "[4]; [6]", "value": 16},
      {"measurement": "MIC microtitre synergy test with ampicillin", "setting": "[4]; [7]", "value": 8}
    ]}
  ]
}
